Measured values taken from PubChem BioAssay AID248 (DTP/NCI, 2004).
Several values for one entry are separate records, joined by “and”; a condition that tells them apart may be missing. Identical values can stand only once. Inconclusive results and toxic doses are left out. Cut-off read from the data, not from the text of the source: active = T/C of 150% or more; inactive = T/C below 125%.

System: L1210 leukemia ip in BDF1 mice, survival T/C
Assay: NCI In Vivo Anticancer Drug Screen. Data for tumor model L1210 Leukemia (intraperitoneal) in B6D2F1 (BDF1) mice
Details: endpoint: mean survival time, higher = longer survival
Procedure, shortened: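 Survival endpoint. Drug-treated group vs vehicle group, expressed as T divided by C. Tumor passaged by transplantation.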

[1] = dose: 100.0 mg/kg/injection, schedule: Q01DX009 (ip), vehicle: Klucel (hydroxypropylcellulose) (HPC)
[2] = dose: 100.0 mg/kg/injection, schedule: Q04DX003 (ip), vehicle: Klucel (hydroxypropylcellulose) (HPC)
[3] = dose: 200.0 mg/kg/injection, schedule: Q04DX003 (ip), vehicle: Klucel (hydroxypropylcellulose) (HPC)
[4] = dose: 400.0 mg/kg/injection, schedule: Q04DX003 (ip), vehicle: Klucel (hydroxypropylcellulose) (HPC)
[5] = dose: 100.0 mg/kg/injection, schedule: Q04DX003 (ip), vehicle: saline
[6] = dose: 200.0 mg/kg/injection, schedule: Q04DX003 (ip), vehicle: saline
[7] = dose: 200.0 mg/kg/injection, schedule: Q01DX009 (ip), vehicle: Klucel (hydroxypropylcellulose) (HPC)
[8] = dose: 400.0 mg/kg/injection, schedule: Q01DX009 (ip), vehicle: Klucel (hydroxypropylcellulose) (HPC)
[9] = dose: 100.0 mg/kg/injection, schedule: Q01DX001 (ip), vehicle: saline

Measured: T/C

OCC1OC(n2cnc3c(Cl)ncnc32)C(O)C1O (stereo unspecified)
inactive: dose: 62.5 mg/kg/injection, schedule: Q01DX009 (ip), vehicle: saline 96 % of control | dose: 62.5 mg/kg/injection, schedule: Q01DX010 (ip), vehicle: saline 102 % of control | dose: 62.5 mg/kg/injection, schedule: Q01DX Z (ip), vehicle: carboxymethylcellulose (CMC) 102 % of control | [1] 102 % of control | dose: 125.0 mg/kg/injection, schedule: Q01DX009 (ip), vehicle: saline 93 % of control and 89 % of control | dose: 125.0 mg/kg/injection, schedule: Q01DX010 (ip), vehicle: saline 89 % of control and 92 % of control | dose: 125.0 mg/kg/injection, schedule: Q01DX Z (ip), vehicle: carboxymethylcellulose (CMC) 96 % of control | dose: 250.0 mg/kg/injection, schedule: Q01DX009 (ip), vehicle: saline 96 % of control and 91 % of control | dose: 250.0 mg/kg/injection, schedule: Q01DX010 (ip), vehicle: saline 100 % of control and 92 % of control | dose: 250.0 mg/kg/injection, schedule: Q01DX Z (ip), vehicle: carboxymethylcellulose (CMC) 110 % of control | dose: 300.0 mg/kg/injection, schedule: Q01DX009 (ip), vehicle: Klucel (hydroxypropylcellulose) (HPC) 101 % of control | dose: 440.0 mg/kg/injection, schedule: Q01DX001 (ip), vehicle: carboxymethylcellulose (CMC) 96 % of control | dose: 500.0 mg/kg/injection, schedule: Q01DX009 (ip), vehicle: Klucel (hydroxypropylcellulose) (HPC) 100 % of control | dose: 500.0 mg/kg/injection, schedule: Q01DX009 (ip), vehicle: saline 96 % of control and 98 % of control | dose: 500.0 mg/kg/injection, schedule: Q01DX010 (ip), vehicle: saline 97 % of control and 88 % of control | dose: 500.0 mg/kg/injection, schedule: Q01DX Z (ip), vehicle: carboxymethylcellulose (CMC) 94 % of control | dose: 670.0 mg/kg/injection, schedule: Q01DX001 (ip), vehicle: carboxymethylcellulose (CMC) 95 % of control | dose: 1000.0 mg/kg/injection, schedule: Q01DX001 (ip), vehicle: carboxymethylcellulose (CMC) 95 % of control | dose: 1000.0 mg/kg/injection, schedule: Q01DX009 (ip), vehicle: Klucel (hydroxypropylcellulose) (HPC) 106 % of control | dose: 1500.0 mg/kg/injection, schedule: Q01DX001 (ip), vehicle: carboxymethylcellulose (CMC) 90 % of control | dose: 2250.0 mg/kg/injection, schedule: Q01DX001 (ip), vehicle: carboxymethylcellulose (CMC) 97 % of control

NC(N)=NN=C(c1ccccc1)c1ccccc1
inactive: dose: 15.0 mg/kg/injection, schedule: Q01DX Z (ip), vehicle: other 101 % of control | dose: 30.0 mg/kg/injection, schedule: Q01DX Z (ip), vehicle: other 98 % of control | dose: 60.0 mg/kg/injection, schedule: Q01DX Z (ip), vehicle: other 106 % of control

Cc1cccc(NC#N)n1
inactive: dose: 25.0 mg/kg/injection, schedule: Q01DX001 (ip), vehicle: Klucel (hydroxypropylcellulose) (HPC) 100 % of control | dose: 50.0 mg/kg/injection, schedule: Q01DX001 (ip), vehicle: Klucel (hydroxypropylcellulose) (HPC) 98 % of control | dose: 100.0 mg/kg/injection, schedule: Q01DX001 (ip), vehicle: Klucel (hydroxypropylcellulose) (HPC) 98 % of control and 101 % of control

CCOC(=O)C1(C(=O)OCC)CCC(O)N1C(=O)c1cc2c(cc1[N+](=O)[O-])OCO2 (stereo unspecified)
inactive: [2] 91 % of control | [3] 99 % of control | [4] 100 % of control

O=C(Nc1ccc(CC2=NCCN2)cc1)c1cccc(C(=O)Nc2ccc(CC3=NCCN3)cc2)c1
inactive: dose: 6.5 mg/kg/injection, schedule: Q01DX Z (ip), vehicle: carboxymethylcellulose (CMC) 100 % of control | dose: 9.7 mg/kg/injection, schedule: Q01DX Z (ip), vehicle: carboxymethylcellulose (CMC) 93 % of control | dose: 14.6 mg/kg/injection, schedule: Q01DX Z (ip), vehicle: carboxymethylcellulose (CMC) 94 % of control | dose: 22.0 mg/kg/injection, schedule: Q01DX Z (ip), vehicle: carboxymethylcellulose (CMC) 94 % of control | dose: 22.2 mg/kg/injection, schedule: Q01DX Z (ip), vehicle: carboxymethylcellulose (CMC) 95 % of control

CC(C)(C)OC(=O)CCN1CC1
inactive: dose: 75.0 mg/kg/injection, schedule: Q01DX001 (ip), vehicle: saline 109 % of control | dose: 150.0 mg/kg/injection, schedule: Q01DX001 (ip), vehicle: saline 104 % of control

O=C(O)CN1C(=O)C2CC=CCC2C1=O (stereo unspecified)
inactive: dose: 100.0 mg/kg/injection, schedule: Q01DX009 (ip), vehicle: saline 91 % of control | [5] 96 % of control | dose: 200.0 mg/kg/injection, schedule: Q01DX009 (ip), vehicle: saline 96 % of control | [6] 93 % of control | dose: 400.0 mg/kg/injection, schedule: Q01DX009 (ip), vehicle: saline 86 % of control | dose: 400.0 mg/kg/injection, schedule: Q04DX003 (ip), vehicle: saline 91 % of control

CCC(c1ccc(OC)cc1)C(O)(CC)c1ccc(OC)cc1 (stereo unspecified)
inactive: [2] 98 % of control | [3] 98 % of control | [4] 102 % of control

CN1CCN(C(=O)N2c3ccccc3Sc3ccccc32)CC1
inactive: dose: 12.5 mg/kg/injection, schedule: Q04DX003 (ip), vehicle: saline 99 % of control | dose: 25.0 mg/kg/injection, schedule: Q04DX003 (ip), vehicle: saline 95 % of control | dose: 50.0 mg/kg/injection, schedule: Q04DX003 (ip), vehicle: saline 101 % of control | [5] 100 % of control | [6] 92 % of control

COc1ccc(C(=O)c2ccccc2)c(OC(=O)Nc2cc([N+](=O)[O-])ccc2F)c1
inactive: [2] 95 % of control | [3] 101 % of control | [4] 98 % of control

CC(C)(C)CC(C)(C)c1ccc(OCCOc2ccc([N+](=O)[O-])cc2N)cc1
inactive: [1] 97 % of control | [2] 98 % of control | [7] 97 % of control | [3] 93 % of control | [8] 101 % of control | [4] 86 % of control

O=C(N=C=S)c1ccccc1
inactive: dose: 100.0 mg/kg/injection, schedule: Q01DX009 (ip), vehicle: other 95 % of control | dose: 200.0 mg/kg/injection, schedule: Q01DX009 (ip), vehicle: other 87 % of control | dose: 400.0 mg/kg/injection, schedule: Q01DX009 (ip), vehicle: other 89 % of control

COc1cc(O)c2c(c1)C(=O)c1cc3c(c(O)c1C2=O)C(OC1OC(C)C(O)C(O)C1OC)C(OC)C(C)(O)C3=O (stereo unspecified)
inactive: [9] 92 % of control | dose: 200.0 mg/kg/injection, schedule: Q01DX001 (ip), vehicle: saline 103 % of control | dose: 400.0 mg/kg/injection, schedule: Q01DX001 (ip), vehicle: saline 97 % of control

CCOC(=O)NCc1ccco1
inactive: dose: 5.0 mg/kg/injection, schedule: Q01DX009 (ip), vehicle: saline 89 % of control | dose: 10.0 mg/kg/injection, schedule: Q01DX009 (ip), vehicle: saline 109 % of control | dose: 20.0 mg/kg/injection, schedule: Q01DX009 (ip), vehicle: saline 93 % of control

CCOc1ccc(NC(C)=O)c(OC(C)=O)c1
inactive: dose: 75.0 mg/kg/injection, schedule: Q01DX001 (ip), vehicle: carboxymethylcellulose (CMC) 95 % of control and 100 % of control | dose: 150.0 mg/kg/injection, schedule: Q01DX001 (ip), vehicle: carboxymethylcellulose (CMC) 100 % of control | dose: 300.0 mg/kg/injection, schedule: Q01DX001 (ip), vehicle: carboxymethylcellulose (CMC) 93 % of control

COc1ccc(NCC(O)CN2CCCCC2)cc1 (stereo unspecified)
inactive: [9] 94 % of control

COc1ccc(C(=O)c2cnc(C)n2Cc2ccccc2)cc1
inactive: [1] 106 % of control | [7] 106 % of control | [8] 114 % of control
